EC50 and inhibition data for 15 compounds are collected here from patent US10703748B2, “Diazanaphthalen-3-yl carboxamides and preparation and use thereof” (Samumed, LLC, priority 2017, dated 2020).

As a reminder, the EC50 is the concentration giving half of the maximal effect.

One experiment concerns the target DYRK1A kinase (Homo sapiens, UniProt Q13627). Description: DYRK1A kinase activity (Ser/Thr 18 peptide Z-lyte FRET assay).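 Further: kinase activity read as coumarin/fluorescein emission ratio after development step, with unphosphorylated and phosphorylated peptide forms setting 0% and 100% controls, values from dose-response curves.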 It counts as biochemical. The settings on record: recombinant DYRK1A, 30 μM ATP, one hour at room temperature.
A further experiment addresses GSK3β kinase (Homo sapiens, UniProt P49841). Description: GSK3β kinase activity (Ser/Thr 09 peptide Z-lyte FRET assay). The class given is biochemical. As to conditions: recombinant kinase, 46 μM ATP, one hour at room temperature; read-out: EC50.
In experiment [1] the test system is secreted cytokines TNFα, IL-6 and KC-GRO. Description: Secreted cytokines in Lipopolysaccharide-stimulated BV-2 cells (Table 9 does not say which cytokine). It counts as cell-based, mouse. As to conditions: Mus musculus, BV-2, 5 h; read-out: EC50.
The test system of experiment [2] is SW480 colon carcinoma cells. Description: Cell viability assay (CellTiter-Glo). As to conditions: Homo sapiens; for EC50: SW480, 96 h; for inhibition at 10 µM: SW480, read-out: percent inhibition at 10 μM. For orientation: ATP-based viability assays read luminescence as a measure of living cells.
Experiment [3] relates to Wnt-responsive Sp5-Luc reporter in SW480 colon carcinoma cells. Description: Screening assay for Wnt activity (Sp5-Luc reporter gene assay). The settings on record: Homo sapiens; for EC50: SW480; for inhibition at 10 µM: SW480, read-out: percent inhibition at 10 μM. In general terms: A reporter such as luciferase makes a cellular process visible.
A further experiment relates to IL-6. Description: IL-6 inhibition in LPS-stimulated human peripheral blood mononuclear cells (HTRF). The settings on record: Homo sapiens, PBMC; for EC50: 22 h; for inhibition at 10 µM: read-out: percentage in parentheses after EC50 >10. Background: TR-FRET usually uses a lanthanide donor and a delayed reading to cut background.
Experiment [4] deals with α-smooth muscle actin (aSMA) positive LL29 cells. Description: Inhibition of the fibrotic process: αSMA staining in TGF-β1 treated LL29 fibroblasts from IPF patients. As to conditions: Homo sapiens, Fibroblast; for EC50: 96 h; for inhibition at 10 µM: read-out: percentage in parentheses after EC50 >10.

GSK3β kinase, sequence (P49841 whole entry): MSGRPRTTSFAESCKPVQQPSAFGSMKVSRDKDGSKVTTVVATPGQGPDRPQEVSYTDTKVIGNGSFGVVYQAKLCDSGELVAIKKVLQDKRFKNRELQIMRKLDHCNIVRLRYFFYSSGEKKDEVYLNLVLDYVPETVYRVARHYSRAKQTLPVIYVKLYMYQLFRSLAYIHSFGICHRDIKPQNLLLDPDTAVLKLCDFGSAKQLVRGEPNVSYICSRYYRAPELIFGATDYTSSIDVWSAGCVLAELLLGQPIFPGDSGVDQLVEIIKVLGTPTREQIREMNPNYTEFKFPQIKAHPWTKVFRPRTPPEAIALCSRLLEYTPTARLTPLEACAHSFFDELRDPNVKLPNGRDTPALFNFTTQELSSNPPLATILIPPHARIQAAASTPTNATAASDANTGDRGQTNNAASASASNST

As for `CN(C)Cc1ccc(C(=O)Nc2cc3nc(-c4cnn(C)c4)ccc3cn2)cc1` [Compound 170, 4-((Dimethylamino)methyl)-N-(2-(1-methyl-1H-pyrazol-4-yl)-1,6-naphthyridin-7-yl)benzamide], the EC50 was determined as 0.006 µM on DYRK1A kinase; 1.87 µM on GSK3β kinase; 0.055 µM in experiment [1]; 3.37 µM in experiment [2]; 0.396 µM in experiment [3]; 8.09 µM with IL-6. The same compound gave an EC50 in experiment [4] of 1.3 µM.

Consider `Cn1cc(-c2ccc3cnc(NC(=O)c4ccnc(OC5CCNCC5)c4)nc3c2)cn1` [Compound 1060, N-(7-(1-Methyl-1H-pyrazol-4-yl)quinazolin-2-yl)-2-(piperidin-4-yloxy)isonicotinamide], for which the EC50 was 0.027 µM at DYRK1A kinase; greater than 10 µM on GSK3β kinase; 0.28 µM in experiment [1]; 6.96 µM in experiment [2]; 3.57 µM in experiment [3]; greater than 10 µM with IL-6. The EC50 in experiment [4] was greater than 10 µM. Further, the results for the inhibition at 10 µM (in the experiment on IL-6; in experiment [4]) were 4.9% and 28.6%, respectively.

Consider `Cn1cnnc1-c1ccc2cnc(NC(=O)C3CCN(CCC(F)(F)F)CC3)nc2c1` [Compound 1297, N-(7-(4-Methyl-4H-1,2,4-triazol-3-yl)quinazolin-2-yl)-1-(3,3,3-trifluoropropyl)piperidine-4-carboxamide], for which the EC50 on DYRK1A kinase is 0.057 µM; at GSK3β kinase, 0.038 µM; in experiment [1], no less than 10 µM; in experiment [2], greater than 10 µM; in experiment [3] it was greater than 10 µM; in the experiment on IL-6 it was greater than 10 µM. This compound showed an EC50 in experiment [4] greater than 10 µM. Moreover, the inhibition at 10 µM in experiment [2] is 35.1%; in experiment [3], 39.2%; with IL-6 it was 4.3%; in experiment [4] it was 42.1%.

`CC(F)(F)CN1CCC(C(=O)Nc2cc3nc(-c4cnco4)ccc3cn2)CC1` [Compound 540, 1-(2,2-Difluoropropyl)-N-(2-(oxazol-5-yl)-1,6-naphthyridin-7-yl)piperidine-4-carboxamide]: the half-maximal effective concentration (EC50) at DYRK1A kinase was 0.022 µM; at GSK3β kinase, 0.644 µM; in experiment [1] it was no less than 10 µM; in experiment [2], greater than 10 µM; in experiment [3], greater than 10 µM; in the experiment with IL-6 it was greater than 10 µM. In experiment [4], the EC50 is greater than 10 µM. For the same compound, the inhibition at 10 µM in experiment [2] was 5.3%; in experiment [3], 11.8%; in the experiment on IL-6 it was 3.9%; in experiment [4], 50%.

For `CN1CCC(n2cc(C(=O)Nc3cc4cc(-c5cncc6[nH]ccc56)ncc4cn3)cn2)CC1` [Compound 4523, N-(6-(1H-Pyrrolo[2,3-c]pyridin-4-yl)-2,7-naphthyridin-3-yl)-1-(1-methylpiperidin-4-yl)-1H-pyrazole-4-carboxamide], the EC50 is 0.01 µM at DYRK1A kinase; greater than 10 µM on GSK3β kinase; 1.3 µM in experiment [1]; 0.513 µM in experiment [2]; 0.718 µM in experiment [3]; 3.26 µM in the experiment with IL-6. Further, in experiment [4], the midpoint of the response, the EC50, lay at 2.38 µM.

For the compound `CN1CCC(Oc2cccc(C(=O)Nc3cc4cc(-c5cnco5)cnc4cn3)c2)CC1` [Compound 3311, 3-((1-Methylpiperidin-4-yl)oxy)-N-(3-(oxazol-5-yl)-1,7-naphthyridin-6-yl) benzamide], the EC50 on DYRK1A kinase is 0.007 µM; on GSK3β kinase it was greater than 10 µM; in experiment [1], 0.42 µM; in experiment [2], greater than 10 µM; in experiment [3], greater than 10 µM; in the experiment with IL-6, greater than 10 µM. In experiment [4], the EC50 was 1.44 µM. The results for the inhibition at 10 µM (in experiment [2]; in experiment [3]; in the experiment with IL-6) were 5.4%, 4.9% and 5.8%, respectively.

With `CN(C)C1CCN(c2cc(C(=O)Nc3ncc4ccc(-c5cn(C)nn5)cc4n3)ccn2)CC1` [Compound 1282, 2-(4-(Dimethylamino)piperidin-1-yl)-N-(7-(1-methyl-1H-1,2,3-triazol-4-yl)quinazolin-2-yl)isonicotinamide], the EC50 is 0.008 µM at DYRK1A kinase; 0.453 µM on GSK3β kinase; 1 µM in experiment [1]; 1.34 µM in experiment [2]; 0.742 µM in experiment [3]; greater than 10 µM in the experiment with IL-6. For the same compound, in experiment [4], the EC50 worked out at 2.54 µM. In the experiment with IL-6, the inhibition at 10 µM stood at 42.4%.

For the compound `Cn1cc(-c2cc3cc(NC(=O)c4ccc5ccoc5c4)ncc3cn2)cn1` [Compound 3836, N-(6-(1-Methyl-1H-pyrazol-4-yl)-2,7-naphthyridin-3-yl)benzofuran-6-carboxamide], the EC50 was 0.005 µM at DYRK1A kinase; 1.47 µM on GSK3β kinase; 1 µM in experiment [1]; greater than 10 µM in experiment [2]; 0.22 µM in experiment [3]; greater than 10 µM in the experiment on IL-6. Further, the EC50 in experiment [4] is greater than 10 µM. Moreover, the inhibition at 10 µM in experiment [2] was determined as 33.9%; in the experiment on IL-6, 1.4%; in experiment [4], 10%.

In the case of `CN1CCN(c2cc(C(=O)Nc3cc4cc(-c5cncs5)ncc4cn3)ccn2)CC1` [Compound 4257, 2-(4-Methylpiperazin-1-yl)-N-(6-(thiazol-5-yl)-2,7-naphthyridin-3-yl) isonicotinamide], the EC50 at DYRK1A kinase was 0.006 µM; on GSK3β kinase, 1.62 µM; in experiment [1], 0.626 µM; in experiment [2], 2.46 µM; in experiment [3] it was 4.06 µM; in the experiment with IL-6 it was greater than 10 µM. For the same compound, the EC50 in experiment [4] stood at 2.52 µM. For the same compound, the inhibition at 10 µM in the experiment on IL-6 was 5.3%.

`C[C@H]1CCCN1CC(=O)Nc1cc2cc(-c3cnn(C)c3)cnc2cn1` [Compound 2767, (S)—N-(3-(1-Methyl-1H-pyrazol-4-yl)-1,7-naphthyridin-6-yl)-2-(2-methylpyrrolidin-1-yl)acetamide]: the EC50 on DYRK1A kinase was 0.034 µM; on GSK3β kinase, 2.52 µM; in experiment [1], 0.896 µM; in experiment [2] it was greater than 10 µM; in experiment [3] it was greater than 10 µM; with IL-6, greater than 10 µM. Besides, the EC50 in experiment [4] was greater than 10 µM. Moreover, the inhibition at 10 µM was found to be 37% in experiment [2], 20.7% in experiment [3], 0% with IL-6 and 13.8% in experiment [4].

Regarding `O=C(Nc1ncc2ccc(-c3cncs3)cc2n1)C1CCN(C2COC2)CC1` [Compound 1523, 1-(Oxetan-3-yl)-N-(7-(thiazol-5-yl)quinazolin-2-yl)piperidine-4-carboxamide], the EC50 was 0.047 µM on DYRK1A kinase; 1.38 µM on GSK3β kinase; 1.8 µM in experiment [1]; greater than 10 µM in experiment [2]; greater than 10 µM in experiment [3]; greater than 10 µM in the experiment with IL-6. In experiment [4], this compound gave an EC50 greater than 10 µM. In addition, the inhibition at 10 µM in experiment [2] was 15.1%; in experiment [3], 13.7%; with IL-6, 6.2%; in experiment [4], 24.9%.

As to `Nc1cncc(-c2cc3cc(NC(=O)c4ccc(OC5CCNCC5)cc4)ncc3cn2)c1` [Compound 4431, N-(6-(5-Aminopyridin-3-yl)-2,7-naphthyridin-3-yl)-4-(piperidin-4-yloxy) benzamide], the EC50 on DYRK1A kinase was 0.003 µM; on GSK3β kinase, 3.78 µM; in experiment [1] it was 0.04 µM; in experiment [2], 3.15 µM; in experiment [3], 2.82 µM; in the experiment on IL-6, greater than 10 µM. The compound also gave an EC50 in experiment [4] of 2.49 µM. For the same compound, the inhibition at 10 µM with IL-6 stood at 3.6%.

In the case of `CN1CCN(Cc2cccc(C(=O)Nc3cc4nc(-c5cnn(C)c5)ccc4cn3)c2)CC1` [Compound 172, N-(2-(1-Methyl-1H-pyrazol-4-yl)-1,6-naphthyridin-7-yl)-3-((4-methylpiperazin-1-yl)methyl)benzamide], the EC50 on DYRK1A kinase is 0.013 µM; at GSK3β kinase, 0.765 µM; in experiment [1], 0.214 µM; in experiment [2] it was 1.01 µM; in experiment [3], 0.445 µM; in the experiment on IL-6, greater than 10 µM. In addition, in experiment [4], the EC50 worked out at 0.393 µM. The inhibition at 10 µM in the experiment with IL-6 worked out at 32.7%.

For `Cn1ncc(-c2ccc3cnc(NC(=O)c4ccnc(N5CCOCC5)c4)nc3c2)c1CN1CCOCC1` [Compound 1220, N-(7-(1-Methyl-5-(morpholinomethyl)-1H-pyrazol-4-yl)quinazolin-2-yl)-2-morpholinoisonicotinamide], the EC50 on DYRK1A kinase is 0.019 µM; on GSK3β kinase, 5.6 µM; in experiment [1], 0.877 µM; in experiment [2], 5.3 µM; in experiment [3], 1.82 µM; with IL-6 it was greater than 10 µM. Further, the EC50 in experiment [4] was greater than 10 µM. For the same compound, the inhibition at 10 µM in the experiment with IL-6 turned out to be 0%; in experiment [4] it was 5.5%.

As for `CN(CC(=O)Nc1cc2cc(-c3cnn(C)c3)cnc2cn1)C1CCC1` [Compound 2776, 2-(Cyclobutyl(methyl)amino)-N-(3-(1-methyl-1H-pyrazol-4-yl)-1,7-naphthyridin-6-yl)acetamide], the EC50 on DYRK1A kinase was 0.056 µM; at GSK3β kinase it was greater than 10 µM; in experiment [1] it was 1 µM; in experiment [2], greater than 10 µM; in experiment [3], 0.836 µM; in the experiment on IL-6, greater than 10 µM. Besides, the EC50 in experiment [4] was greater than 10 µM. The inhibition at 10 µM in experiment [2] worked out at 8.1%; in the experiment with IL-6, 10.4%; in experiment [4], 39%.
